Laboratory results published in the NIST ThermoML archive (doi:10.1021/je0201323).

Experiment: xn = mol fraction of the nth substance listed
Details: for mass density: 101.3 kPa, Liquid, vibrating tube; for surface tension liquid-gas: Pendant drop shape

CN(C)C=O [dimethylformamide] + Cc1ccccc1
Details | mass density [kg/m3] | surface tension liquid-gas [mN/m]
278.15 K, x2 = 0 | 963 | –
278.15 K, x2 = 0.1502 | 949.1 | –
278.15 K, x2 = 0.3 | 935.7 | –
278.15 K, x2 = 0.4492 | 923.1 | –
278.15 K, x2 = 0.5998 | 911 | –
278.15 K, x2 = 0.7548 | 898.9 | –
283.15 K, x2 = 0 | 958.3 | –
283.15 K, x2 = 0.1502 | 944.4 | –
283.15 K, x2 = 0.3 | 931.1 | –
283.15 K, x2 = 0.4492 | 918.6 | –
283.15 K, x2 = 0.5998 | 906.5 | –
283.15 K, x2 = 0.7548 | 894.5 | –
287.81 K, x2 = 0 | – | 36.96
287.81 K, x2 = 0.1502 | – | 35.22
287.81 K, x2 = 0.3 | – | 33.42
287.81 K, x2 = 0.4492 | – | 32.15
287.81 K, x2 = 0.5998 | – | 31.2
287.81 K, x2 = 0.7548 | – | 30.17
288.15 K, x2 = 0 | 953.7 | –
288.15 K, x2 = 0.1502 | 939.9 | –
288.15 K, x2 = 0.3 | 926.6 | –
288.15 K, x2 = 0.4492 | 914.1 | –
288.15 K, x2 = 0.5998 | 902 | –
288.15 K, x2 = 0.7548 | 890 | –
293.15 K, x2 = 0 | 949.1 | –
293.15 K, x2 = 0.1502 | 935.3 | –
293.15 K, x2 = 0.3 | 922 | –
293.15 K, x2 = 0.4492 | 909.5 | –
293.15 K, x2 = 0.5998 | 897.5 | –
293.15 K, x2 = 0.7548 | 885.5 | –
297.82 K, x2 = 0 | – | 35.83
297.82 K, x2 = 0.1502 | – | 33.97
297.82 K, x2 = 0.3 | – | 32.5
297.82 K, x2 = 0.4492 | – | 31.04
297.82 K, x2 = 0.5998 | – | 30.04
297.82 K, x2 = 0.7548 | – | 29.17
298.15 K, x2 = 0 | 944.5 | –
298.15 K, x2 = 0.1502 | 930.6 | –
298.15 K, x2 = 0.3 | 917.4 | –
298.15 K, x2 = 0.4492 | 905 | –
298.15 K, x2 = 0.5998 | 892.9 | –
298.15 K, x2 = 0.7548 | 880.9 | –
303.15 K, x2 = 0 | 939.9 | –
303.15 K, x2 = 0.1502 | 926.1 | –
303.15 K, x2 = 0.3 | 912.9 | –
303.15 K, x2 = 0.4492 | 900.4 | –
303.15 K, x2 = 0.5998 | 888.4 | –
303.15 K, x2 = 0.7548 | 876.4 | –
307.86 K, x2 = 0 | – | 34.65
307.86 K, x2 = 0.1502 | – | 32.84
307.86 K, x2 = 0.3 | – | 31.2
307.86 K, x2 = 0.4492 | – | 29.86
307.86 K, x2 = 0.5998 | – | 28.98
307.86 K, x2 = 0.7548 | – | 28.06
308.15 K, x2 = 0 | 935.4 | –
308.15 K, x2 = 0.1502 | 921.5 | –
308.15 K, x2 = 0.3 | 908.3 | –
308.15 K, x2 = 0.4492 | 895.9 | –
308.15 K, x2 = 0.5998 | 883.8 | –
308.15 K, x2 = 0.7548 | 871.8 | –
313.15 K, x2 = 0 | 930.9 | –
313.15 K, x2 = 0.1502 | 917 | –
313.15 K, x2 = 0.3 | 903.8 | –
313.15 K, x2 = 0.4492 | 891.3 | –
313.15 K, x2 = 0.5998 | 879.2 | –
313.15 K, x2 = 0.7548 | 867.2 | –
317.86 K, x2 = 0 | – | 33.37
317.86 K, x2 = 0.1502 | – | 31.7
317.86 K, x2 = 0.3 | – | 30.21
317.86 K, x2 = 0.4492 | – | 28.77
317.86 K, x2 = 0.5998 | – | 27.61
317.86 K, x2 = 0.7548 | – | 26.85
318.15 K, x2 = 0 | 926.3 | –
318.15 K, x2 = 0.1502 | 912.4 | –
318.15 K, x2 = 0.3 | 899.2 | –
318.15 K, x2 = 0.4492 | 886.7 | –
318.15 K, x2 = 0.5998 | 874.6 | –
318.15 K, x2 = 0.7548 | 862.5 | –
323.15 K, x2 = 0 | 921.7 | –
323.15 K, x2 = 0.1502 | 907.8 | –
323.15 K, x2 = 0.3 | 894.6 | –
323.15 K, x2 = 0.4492 | 882 | –
323.15 K, x2 = 0.5998 | 869.9 | –
323.15 K, x2 = 0.7548 | 857.9 | –
327.88 K, x2 = 0 | – | 32.03
327.88 K, x2 = 0.1502 | – | 30.5
327.88 K, x2 = 0.3 | – | 29.04
327.88 K, x2 = 0.4492 | – | 27.62
327.88 K, x2 = 0.5998 | – | 26.59
327.88 K, x2 = 0.7548 | – | 25.7
328.15 K, x2 = 0 | 917.9 | –
328.15 K, x2 = 0.1502 | 903.3 | –
328.15 K, x2 = 0.3 | 890.1 | –
328.15 K, x2 = 0.4492 | 877.5 | –
328.15 K, x2 = 0.5998 | 865.3 | –
328.15 K, x2 = 0.7548 | 853.2 | –
333.15 K, x2 = 0 | 913.2 | –
333.15 K, x2 = 0.1502 | 899 | –
333.15 K, x2 = 0.3 | 885.7 | –
333.15 K, x2 = 0.4492 | 873 | –
333.15 K, x2 = 0.5998 | 860.7 | –
333.15 K, x2 = 0.7548 | 848.5 | –
